We go through 14 compounds from ChEMBL document CHEMBL5291721, “A preclinical secondary pharmacology resource illuminates target-adverse drug reaction associations of marketed drugs” (Nat Commun, 2023).

What is called AC50 is the concentration at which the activity in the assay is half-maximal. Read a low AC50 as greater potency.

Some targets named below: Melanocortin receptor 3 (Homo sapiens, UniProt P41968); Adenosine receptor A2a (Homo sapiens, UniProt P29274); Motilin receptor (Homo sapiens, UniProt O43193).
The target in assay [1] is T1, Type-1 angiotensin II receptor (Homo sapiens, UniProt P30556).
T1 sequence (P30556 whole entry): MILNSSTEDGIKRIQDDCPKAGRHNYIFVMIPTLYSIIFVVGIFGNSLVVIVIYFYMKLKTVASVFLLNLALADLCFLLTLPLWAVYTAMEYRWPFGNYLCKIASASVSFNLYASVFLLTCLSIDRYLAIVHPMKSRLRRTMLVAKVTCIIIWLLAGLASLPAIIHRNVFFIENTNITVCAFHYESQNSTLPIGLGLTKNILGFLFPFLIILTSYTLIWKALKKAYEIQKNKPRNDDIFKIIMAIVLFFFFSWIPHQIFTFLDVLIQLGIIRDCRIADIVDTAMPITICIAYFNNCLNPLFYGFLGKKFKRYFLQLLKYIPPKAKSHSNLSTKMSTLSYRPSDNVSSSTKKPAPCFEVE

In assay [2] the target is T2, 5-hydroxytryptamine receptor 2B (Homo sapiens, UniProt P41595). Type of assay: functional, cell-based.
The target of assay [3] is T3, Progesterone receptor (Homo sapiens, UniProt P06401).
T3 sequence (P06401 whole entry): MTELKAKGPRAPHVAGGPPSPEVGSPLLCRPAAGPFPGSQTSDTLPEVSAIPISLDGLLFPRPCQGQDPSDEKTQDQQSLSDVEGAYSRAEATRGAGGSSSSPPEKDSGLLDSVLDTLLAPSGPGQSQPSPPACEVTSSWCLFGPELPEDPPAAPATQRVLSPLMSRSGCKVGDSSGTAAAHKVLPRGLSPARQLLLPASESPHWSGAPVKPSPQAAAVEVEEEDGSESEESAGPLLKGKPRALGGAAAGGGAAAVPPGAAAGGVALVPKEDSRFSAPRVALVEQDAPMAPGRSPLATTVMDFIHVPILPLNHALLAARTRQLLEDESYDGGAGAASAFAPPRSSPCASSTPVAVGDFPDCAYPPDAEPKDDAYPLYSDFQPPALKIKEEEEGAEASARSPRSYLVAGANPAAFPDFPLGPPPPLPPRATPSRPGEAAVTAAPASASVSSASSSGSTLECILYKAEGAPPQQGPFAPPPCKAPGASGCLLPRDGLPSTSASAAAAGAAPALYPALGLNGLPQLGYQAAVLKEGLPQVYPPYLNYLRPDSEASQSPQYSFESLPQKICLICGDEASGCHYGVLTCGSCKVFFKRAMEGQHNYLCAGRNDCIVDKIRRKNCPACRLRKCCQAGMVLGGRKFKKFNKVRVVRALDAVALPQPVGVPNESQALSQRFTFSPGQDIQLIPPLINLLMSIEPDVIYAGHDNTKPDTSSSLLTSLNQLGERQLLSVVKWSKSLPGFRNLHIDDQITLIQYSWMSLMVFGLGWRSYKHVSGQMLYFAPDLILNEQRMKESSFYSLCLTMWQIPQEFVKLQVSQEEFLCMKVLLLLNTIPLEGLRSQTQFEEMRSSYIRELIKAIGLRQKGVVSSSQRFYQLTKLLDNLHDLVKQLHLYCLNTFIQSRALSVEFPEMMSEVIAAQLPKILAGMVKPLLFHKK
Type of assay: functional.

Assay [4] deals with Gamma-aminobutyric acid receptor subunit alpha-1 (Rattus norvegicus, UniProt P62813). The format is functional.
The target in assay [5] is T2, 5-hydroxytryptamine receptor 2B. Type of assay: functional, cell-based. The source holds these as a separate data set.
For the next assay, the target named is T4, Thromboxane A2 receptor (Homo sapiens, UniProt P21731).
T4 sequence (P21731 whole entry): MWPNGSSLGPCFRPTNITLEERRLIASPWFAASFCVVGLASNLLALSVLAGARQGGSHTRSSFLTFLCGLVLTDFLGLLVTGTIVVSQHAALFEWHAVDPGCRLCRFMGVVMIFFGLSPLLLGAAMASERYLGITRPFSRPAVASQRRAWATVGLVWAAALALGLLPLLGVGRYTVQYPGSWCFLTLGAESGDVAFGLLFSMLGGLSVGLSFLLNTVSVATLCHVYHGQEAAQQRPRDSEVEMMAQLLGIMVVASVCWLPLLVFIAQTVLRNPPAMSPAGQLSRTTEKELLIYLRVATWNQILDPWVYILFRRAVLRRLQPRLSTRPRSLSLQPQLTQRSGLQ

Assay [6] has as its target Sodium-dependent noradrenaline transporter (Homo sapiens, UniProt P23975).
Assay [7] has as its target T3, Progesterone receptor. The format is functional. This is another data set of the same source.
The next assay concerns the target Histamine H2 receptor (Homo sapiens, UniProt P25021). Type of assay: functional, cell-based.
For assay [8], the target named is Beta-1 adrenergic receptor (Homo sapiens, UniProt P08588). The format is functional.
The target in another assay is T5, Glucocorticoid receptor (Homo sapiens, UniProt P04150).
T5 sequence (P04150 whole entry): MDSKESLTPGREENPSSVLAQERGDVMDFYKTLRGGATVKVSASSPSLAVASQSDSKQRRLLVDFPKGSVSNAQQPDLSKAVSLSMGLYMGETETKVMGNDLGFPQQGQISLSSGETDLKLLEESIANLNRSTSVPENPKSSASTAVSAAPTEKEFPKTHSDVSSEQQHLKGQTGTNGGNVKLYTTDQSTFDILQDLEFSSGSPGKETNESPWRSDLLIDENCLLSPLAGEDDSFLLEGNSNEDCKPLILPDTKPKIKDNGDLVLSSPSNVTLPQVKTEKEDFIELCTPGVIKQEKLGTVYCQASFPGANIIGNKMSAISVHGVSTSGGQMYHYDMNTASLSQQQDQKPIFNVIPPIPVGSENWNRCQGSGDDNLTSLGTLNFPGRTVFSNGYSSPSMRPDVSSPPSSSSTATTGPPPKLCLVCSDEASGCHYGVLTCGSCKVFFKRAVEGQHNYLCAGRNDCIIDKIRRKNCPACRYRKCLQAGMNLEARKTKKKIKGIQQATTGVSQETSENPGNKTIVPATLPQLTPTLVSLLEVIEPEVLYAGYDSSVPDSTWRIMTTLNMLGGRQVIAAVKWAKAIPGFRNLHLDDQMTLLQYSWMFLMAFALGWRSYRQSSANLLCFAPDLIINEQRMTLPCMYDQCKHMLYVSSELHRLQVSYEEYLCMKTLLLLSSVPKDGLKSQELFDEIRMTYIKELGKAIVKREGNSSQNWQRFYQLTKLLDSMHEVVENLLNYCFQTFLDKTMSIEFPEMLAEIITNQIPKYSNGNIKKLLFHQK
Note: assay procedure not described here.

Sequence of Motilin receptor (O43193 whole entry): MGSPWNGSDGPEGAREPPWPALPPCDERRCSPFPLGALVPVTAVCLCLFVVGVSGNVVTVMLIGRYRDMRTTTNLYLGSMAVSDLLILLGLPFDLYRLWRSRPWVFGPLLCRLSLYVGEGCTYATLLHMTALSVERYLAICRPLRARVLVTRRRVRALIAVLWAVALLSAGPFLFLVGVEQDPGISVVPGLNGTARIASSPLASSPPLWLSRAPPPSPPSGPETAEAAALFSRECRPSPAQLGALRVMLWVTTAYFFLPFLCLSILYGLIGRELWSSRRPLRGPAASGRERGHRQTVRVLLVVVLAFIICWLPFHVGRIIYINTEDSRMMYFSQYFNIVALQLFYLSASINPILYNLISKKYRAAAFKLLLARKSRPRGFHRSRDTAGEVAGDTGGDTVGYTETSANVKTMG
T2 sequence (P41595 whole entry): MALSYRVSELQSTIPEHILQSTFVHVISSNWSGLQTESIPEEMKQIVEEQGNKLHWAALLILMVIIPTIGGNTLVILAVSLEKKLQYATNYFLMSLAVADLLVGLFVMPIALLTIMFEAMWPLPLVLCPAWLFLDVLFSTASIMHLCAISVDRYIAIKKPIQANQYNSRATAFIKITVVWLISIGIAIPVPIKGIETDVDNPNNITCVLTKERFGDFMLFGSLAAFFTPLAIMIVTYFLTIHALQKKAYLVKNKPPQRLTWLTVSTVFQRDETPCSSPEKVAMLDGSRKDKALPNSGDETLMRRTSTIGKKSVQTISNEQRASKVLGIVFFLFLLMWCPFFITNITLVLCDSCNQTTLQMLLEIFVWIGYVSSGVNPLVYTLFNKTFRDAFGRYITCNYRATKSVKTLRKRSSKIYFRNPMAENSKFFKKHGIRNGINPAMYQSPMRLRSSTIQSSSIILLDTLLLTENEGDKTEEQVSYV
Sequence of Sodium-dependent noradrenaline transporter (P23975 whole entry): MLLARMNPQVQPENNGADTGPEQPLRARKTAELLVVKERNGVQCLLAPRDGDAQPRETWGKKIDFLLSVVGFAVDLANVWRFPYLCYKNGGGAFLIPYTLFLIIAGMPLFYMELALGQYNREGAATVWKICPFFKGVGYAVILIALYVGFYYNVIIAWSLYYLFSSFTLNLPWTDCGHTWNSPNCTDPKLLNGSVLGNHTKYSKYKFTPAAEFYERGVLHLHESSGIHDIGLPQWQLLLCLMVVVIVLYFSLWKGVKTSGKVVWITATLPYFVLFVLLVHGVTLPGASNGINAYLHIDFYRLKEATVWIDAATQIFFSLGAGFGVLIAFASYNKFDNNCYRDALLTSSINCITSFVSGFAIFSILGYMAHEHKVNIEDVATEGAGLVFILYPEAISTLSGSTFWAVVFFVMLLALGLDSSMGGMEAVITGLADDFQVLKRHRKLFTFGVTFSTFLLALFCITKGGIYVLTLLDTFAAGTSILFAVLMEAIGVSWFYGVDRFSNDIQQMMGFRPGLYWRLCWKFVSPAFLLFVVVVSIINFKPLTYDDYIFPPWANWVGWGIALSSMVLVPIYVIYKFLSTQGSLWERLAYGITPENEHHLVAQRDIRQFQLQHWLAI
Sequence of Beta-1 adrenergic receptor (P08588 whole entry): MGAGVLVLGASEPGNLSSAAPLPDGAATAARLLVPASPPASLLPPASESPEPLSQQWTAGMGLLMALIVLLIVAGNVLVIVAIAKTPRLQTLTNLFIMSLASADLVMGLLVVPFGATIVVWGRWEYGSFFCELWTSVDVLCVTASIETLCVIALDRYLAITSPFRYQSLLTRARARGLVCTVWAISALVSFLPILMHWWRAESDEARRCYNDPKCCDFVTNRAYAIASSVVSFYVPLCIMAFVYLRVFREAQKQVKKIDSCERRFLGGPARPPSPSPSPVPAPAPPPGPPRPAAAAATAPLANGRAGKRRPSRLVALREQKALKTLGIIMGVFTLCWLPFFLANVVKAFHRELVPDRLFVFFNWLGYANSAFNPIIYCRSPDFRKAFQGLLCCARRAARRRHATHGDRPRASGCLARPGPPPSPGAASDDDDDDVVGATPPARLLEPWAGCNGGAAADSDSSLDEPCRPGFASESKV
Sequence of Histamine H2 receptor (P25021 whole entry): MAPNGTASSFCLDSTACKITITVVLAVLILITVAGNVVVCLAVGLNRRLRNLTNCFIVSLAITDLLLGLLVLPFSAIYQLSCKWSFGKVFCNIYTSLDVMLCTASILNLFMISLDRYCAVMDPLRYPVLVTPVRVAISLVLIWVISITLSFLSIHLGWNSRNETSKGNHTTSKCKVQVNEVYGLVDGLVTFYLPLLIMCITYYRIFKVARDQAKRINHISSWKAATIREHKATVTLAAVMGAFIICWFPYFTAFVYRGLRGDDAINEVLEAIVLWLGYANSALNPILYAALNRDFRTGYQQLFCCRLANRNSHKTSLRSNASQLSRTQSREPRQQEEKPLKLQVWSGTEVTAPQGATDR
Sequence of Adenosine receptor A2a (P29274 whole entry): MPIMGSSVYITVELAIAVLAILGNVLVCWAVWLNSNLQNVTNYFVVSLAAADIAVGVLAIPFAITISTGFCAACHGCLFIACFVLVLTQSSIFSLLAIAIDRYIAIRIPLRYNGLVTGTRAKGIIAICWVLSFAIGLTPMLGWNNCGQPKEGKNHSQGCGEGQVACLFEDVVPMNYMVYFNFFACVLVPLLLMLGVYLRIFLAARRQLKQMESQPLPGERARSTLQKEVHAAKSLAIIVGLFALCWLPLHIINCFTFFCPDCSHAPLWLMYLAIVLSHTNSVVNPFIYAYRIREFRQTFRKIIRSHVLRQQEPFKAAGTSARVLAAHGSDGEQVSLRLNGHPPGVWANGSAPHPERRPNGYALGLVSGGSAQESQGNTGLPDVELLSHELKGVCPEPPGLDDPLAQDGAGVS
Sequence of Gamma-aminobutyric acid receptor subunit alpha-1 (P62813 whole entry): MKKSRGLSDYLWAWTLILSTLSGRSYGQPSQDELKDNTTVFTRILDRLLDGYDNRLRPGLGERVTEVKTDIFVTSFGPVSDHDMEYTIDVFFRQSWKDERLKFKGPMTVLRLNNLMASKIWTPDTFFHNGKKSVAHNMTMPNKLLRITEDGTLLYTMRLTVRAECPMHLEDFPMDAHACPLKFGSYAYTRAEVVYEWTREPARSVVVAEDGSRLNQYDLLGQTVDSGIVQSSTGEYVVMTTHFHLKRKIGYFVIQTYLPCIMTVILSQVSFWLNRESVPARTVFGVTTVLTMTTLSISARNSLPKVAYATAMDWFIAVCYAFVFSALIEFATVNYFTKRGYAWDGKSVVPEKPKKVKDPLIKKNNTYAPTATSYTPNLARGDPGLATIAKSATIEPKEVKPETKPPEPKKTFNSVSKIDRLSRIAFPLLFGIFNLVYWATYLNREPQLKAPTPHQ
Sequence of Melanocortin receptor 3 (P41968 whole entry): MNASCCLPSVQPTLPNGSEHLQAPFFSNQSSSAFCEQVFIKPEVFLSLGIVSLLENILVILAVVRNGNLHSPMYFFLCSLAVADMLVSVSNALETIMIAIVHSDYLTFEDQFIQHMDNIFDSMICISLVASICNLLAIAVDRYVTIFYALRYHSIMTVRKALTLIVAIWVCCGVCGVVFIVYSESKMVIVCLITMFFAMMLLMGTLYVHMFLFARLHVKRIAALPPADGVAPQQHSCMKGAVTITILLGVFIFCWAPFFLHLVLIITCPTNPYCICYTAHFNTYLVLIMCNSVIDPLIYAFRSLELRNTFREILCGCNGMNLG

`O=C1C(O)=C([C@H]2CC[C@H](c3ccc(Cl)cc3)CC2)C(=O)c2ccccc21` [ATOVAQUONE]: the half-maximal activity concentration (AC50) (at Melanocortin receptor 3; in assay [1]; in assay [2]; at Progesterone receptor [3]; in assay [4]; at Adenosine receptor A2a) was above 30 µM throughout. The AC50 (in assay [5]; at Thromboxane A2 receptor; in assay [6]; at Progesterone receptor [7]; at Motilin receptor; on Histamine H2 receptor) was above 30 µM in each case. In [8], this compound gave an AC50 above 30 µM.
For the compound `CC(CC1c2ccccc2CCc2ccccc21)CN(C)C` (configuration not stated) [BUTRIPTYLINE], the concentration at half-maximal activity (AC50) (in assay [2]; in assay [4]; in assay [5]; at Histamine H2 receptor) was above 30 µM throughout.
Take `Nc1nc(Cl)nc2c1ncn2[C@H]1C[C@H](O)[C@@H](CO)O1` [CLADRIBINE]: the AC50 (on Melanocortin receptor 3; on Glucocorticoid receptor; in assay [1]; in [2]; on Progesterone receptor [3]; at Adenosine receptor A2a) was above 30 µM each time. In addition, the AC50 (in assay [5]; in [6]; on Progesterone receptor [7]; on Motilin receptor; on Histamine H2 receptor; in [8]) was above 30 µM throughout.
Consider `Clc1ccccc1C(c1ccccc1)(c1ccccc1)n1ccnc1` [CLOTRIMAZOLE], for which the AC50 in assay [2] was above 10 µM; in [4] it was above 10 µM; in [5] it was above 10 µM; in assay [6], 19.9 µM; on Histamine H2 receptor, above 10 µM; in assay [8], above 10 µM.
For the compound `COc1ccc2c3c1O[C@H]1[C@@H](O)CC[C@H]4[C@@H](C2)N(C)CC[C@@]341` [DIHYDROCODEINE], the AC50 (in assay [2]; in [4]; in assay [5]; at Histamine H2 receptor) was above 30 µM each time.
For the compound `Cc1c(OCC(F)(F)F)ccnc1C[S+]([O-])c1nc2ccccc2[nH]1` (configuration not stated) [LANSOPRAZOLE], the AC50 at Melanocortin receptor 3 is above 30 µM; at Glucocorticoid receptor, above 30 µM; in [1], above 30 µM; in assay [2] it was above 10 µM; in assay [4], above 10 µM; at Adenosine receptor A2a, above 30 µM. For the same compound, the AC50 in assay [5] was above 10 µM; on Thromboxane A2 receptor, 3.46 µM; in assay [6], above 10 µM; at Motilin receptor, above 10 µM; at Histamine H2 receptor, above 10 µM; in assay [8], above 10 µM.
As to `Cc1cc(C(C)(C)C)c(O)c(C)c1CC1=NCCN1` [OXYMETAZOLINE], the concentration at half-maximal activity (AC50) on Melanocortin receptor 3 is above 30 µM; at Progesterone receptor [3], above 30 µM; in assay [4] it was above 30 µM; in [5], 0.266 µM; in [6], above 30 µM; on Progesterone receptor [7] it was above 30 µM.
For the compound `C[C@H]1COc2c(C3(N)CC3)c(F)cc3c(=O)c(C(=O)O)cn1c23` [PAZUFLOXACIN], the concentration at half-maximal activity (AC50) at Melanocortin receptor 3 is above 10 µM; at Glucocorticoid receptor, above 30 µM; in assay [1], above 10 µM; in assay [2] it was above 10 µM; in assay [4], above 10 µM; on Adenosine receptor A2a, above 10 µM. The concentration at half-maximal activity (AC50) is above 10 µM in assay [5]; above 10 µM at Thromboxane A2 receptor; above 10 µM in assay [6]; above 30 µM on Progesterone receptor [7]; above 10 µM at Motilin receptor; above 10 µM on Histamine H2 receptor. Further, in assay [8], the AC50 is above 10 µM.
Take `CC/C(=C(\c1ccccc1)c1ccc(OCCN(C)C)cc1)c1ccccc1` [TAMOXIFEN]: the concentration at half-maximal activity (AC50) was above 10 µM in [2]; above 10 µM in [4]; above 10 µM in assay [5]; 8.83 µM in assay [6]; above 10 µM at Histamine H2 receptor; 17.6 µM in assay [8].
For the compound `C#C[C@]1(O)CC[C@H]2[C@@H]3[C@H](C)CC4=C(CCC(=O)C4)[C@H]3CC[C@@]21C` [TIBOLONE], the half-maximal activity concentration (AC50) on Melanocortin receptor 3 was above 30 µM; in assay [1], above 30 µM; in assay [2], above 30 µM; at Progesterone receptor [3] it was 0.4 µM; in assay [4], 30 µM; on Adenosine receptor A2a it was above 30 µM. The AC50 (in [5]; on Thromboxane A2 receptor; in assay [6]; at Motilin receptor; at Histamine H2 receptor; in [8]) was above 30 µM each time.
As to `COc1cccc(C2(O)CCCCC2CN(C)C)c1` (configuration not stated) [TRAMADOL], the half-maximal activity concentration (AC50) is above 30 µM at Melanocortin receptor 3; above 30 µM on Glucocorticoid receptor; above 30 µM in assay [1]; above 10 µM in assay [2]; above 10 µM in [4]; above 30 µM on Adenosine receptor A2a. Moreover, the concentration at half-maximal activity (AC50) was above 10 µM in [5]; above 30 µM on Thromboxane A2 receptor; above 10 µM in [6]; above 10 µM on Motilin receptor; above 10 µM at Histamine H2 receptor; above 10 µM in assay [8].
Regarding `Cc1nnc2n1-c1ccc(Cl)cc1C(c1ccccc1Cl)=NC2` [TRIAZOLAM], the concentration at half-maximal activity (AC50) at Melanocortin receptor 3 is above 30 µM; at Glucocorticoid receptor, above 30 µM; in assay [1] it was above 30 µM; in assay [2], above 10 µM; in assay [4] it was 0.0011 µM; at Adenosine receptor A2a it was above 30 µM. Further, the AC50 in assay [5] is above 10 µM; on Thromboxane A2 receptor, above 30 µM; in assay [6] it was above 30 µM; on Motilin receptor it was above 10 µM; on Histamine H2 receptor, above 10 µM; in assay [8], above 10 µM.
Consider `CC1(C)CCC(CN2CCN(c3ccc(C(=O)NS(=O)(=O)c4ccc(NCC5CCOCC5)c([N+](=O)[O-])c4)c(Oc4cnc5[nH]ccc5c4)c3)CC2)=C(c2ccc(Cl)cc2)C1` [VENETOCLAX], for which the half-maximal activity concentration (AC50) at Melanocortin receptor 3 was above 30 µM; at Progesterone receptor [3], above 30 µM; in assay [6] it was 11 µM; on Progesterone receptor [7], above 30 µM.
As for THIMEROSAL, the AC50 in assay [5] was above 30 µM.
